These results are taken from patent US7666901B2, “Analogs of 17-hydroxywortmannin as PI3K inhibitors” (Wyeth, priority 2004, dated 2010).

As a reminder, the IC50 is the midpoint of a concentration-inhibition curve. Low readings indicate greater potency, high ones weaker potency. By pIC50 is commonly meant the negative decadic logarithm of the IC50, by convention in mol/L. The low end stands for a large IC50, the high end for a small IC50.

pIC50: −log10 of the molar value. In brackets after ≈: the same amount, converted by molar mass. Where only a bound is given, the exact number is not on record here.

In experiment [1] the test system is MDA435 (human breast adenocarcinoma). The experiment in a line: Cell proliferation (MTS) assay, MDA435. In kind it is cell-based. The conditions noted are these: Table 1, three days treatment; for IC50: Homo sapiens, MDA435, 72 h. On the procedure: (§1) Results of cell proliferation assays for exemplary compounds are shown below in Tables 1 and 2. Cell lines LNCaP (human prostate carcinoma), MDA468 (human breast cancer cell), MDA435 (human breast adenocarcinoma), and DU145 (human prostate carcinoma[…]) were purchased from American Type Culture Collection (ATCC) (Rockville, Md.). Cells were cultured in RPMI Medium 1640 containing 10% fetal bovine serum (FBS) in a 37° C. incubator containing 5% CO2. All cell culture reagents were purchased from Gibco-BRL (Grand Island, N.Y.). Cells were plated in 96-well culture plates at about 3000 cells per well. One day following plating, compounds or vehicle controls (buffer only) were added to cells. Proliferation assays were performed three days post initiation of treatment.
(§2) For a non-radioactive cell proliferation assay, viable cell densities are determined by measuring metabolic conversion (by viable cells) of the dye MTS tatrazolium dye, a cell proliferation assay known by one of skill in the art (MTS assay), a previously established cell proliferation assay. The assay is performed using an assay kit (Promega Corp., Madison, Wis.). The assay plates are incubated for 1-2 hours, and the results are read in a 96-well format plate reader by measuring absorbance at 490 nm. Effect of each compound is calculated as a percentage of control cell growth obtained from vehicle-treated cells grown in the same plate.

The subject of experiment [2] is MDA468 (human breast cancer cell). As to the kind of experiment: Cell proliferation (MTS) assay, MDA468. It counts as cell-based. The conditions noted are these: three days treatment; for IC50: Homo sapiens, 72 h. The procedure: as §1, §2
For a further experiment, the target named is T1, Human TOR (Homo sapiens, UniProt P42345).
T1 construct: FLAG
The experiment in a line: Human TOR (mTOR) kinase assay, DELFIA format. The conditions noted are these: Table 1. It counts as biochemical. The procedure:
The PI3K/AKT/TOR pathway is critical for cell proliferation, growth, survival, and angiogensis. Accordingly, compounds of the present invention may also be useful to inhibit TOR activity. Similar in vivo and in vitro assays to those described above with reference to PI3K can be used to determine the minimum concentration of compound sufficient to inhibit TOR. A human TOR assay and a Rat1-IGF1 assay as described in Examples 67 and 68, respectively was performed with some embodiments of the invention. The results of these assays are shown below in Tables 1 and 2.
Human TOR assays (See Toral-Barza, et al. Biochem Biophys. Res. Commun. 2005 Jun. 24; 332(1):304-10) with purified enzyme are performed in 96-well plates by DELFIA format as follows. Enzymes are first diluted in kinase assay buffer (10 mM Hepes (pH 7.4), 50 mM NaCl, 50 mM b-glycerophosphate, 10 mM MnCl2, 0.5 mM DTT, 0.25 mM microcystin LR, and […] BSA). To each well, 12 mL of the diluted enzyme is mixed briefly with 0.5 mL test inhibitor or control vehicle dimethylsulfoxide (DMSO). The kinase reaction is initiated by adding 12.5 mL kinase assay buffer containing ATP and His6-S6K to give a final reaction volume of 25 mL containing 800 ng/mL FLAG-TOR, […] ATP and […] His6-S6K. The reaction plate is incubated for 2 hours (linear at 1-6 hours) at room temperature with gentle shaking and then terminated by adding 25 mL Stop buffer (20 mM Hepes (pH 7.4), 20 mM EDTA, 20 mM EGTA). The DELFIA detection of the phosphorylated (Thr-389) His6-S6K is performed at room temperature using a monoclonal anti-P(T389)-p70S6K antibody (1A5, Cell Signaling) labeled with Europium-N1-ITC (Eu) (10.4 Eu per antibody, PerkinElmer). The DELFIA Assay buffer and Enhancement solution can be purchased from PerkinElmer. 45 mL of the terminated kinase reaction mixture is transferred to a MaxiSorp plate (Nunc) containing 55 mL PBS. The His6-S6K is allowed to attach for 2 hours after which the wells are aspirated and washed once with PBS. 100 mL of DELFIA Assay buffer with 40 ng/mL Eu-P(T389)-S6K antibody is added. The antibody binding is continued for 1 hour with gentle agitation. The wells are then aspirated and washed 4 times with PBS containing 0.05% Tween-20 (PBST). […] of DELFIA Enhancement solution is added to each well and the plates are read in a PerkinElmer Victor model plate reader. Data obtained is used to calculate enzymatic activity and enzyme inhibition by potential inhibitors.

For experiment [3], the system named is DU145 (human prostate carcinoma/lymphocytic leukemia). As to the kind of experiment: Cell proliferation (MTS) assay, DU145. It counts as cell-based. The conditions noted are these: Table 1, three days treatment; for IC50: Homo sapiens, DU-145, 72 h. On the procedure: as §1, §2
The subject of experiment [4] is LNCaP (human prostate carcinoma). The experiment in a line: Cell proliferation (MTS) assay, LNCaP. It counts as cell-based. The conditions noted are these: three days treatment; for IC50: Homo sapiens, LNCaP, 72 h. On the procedure: as §1, §2
Experiment [5] relates to phosphor-AKT (S473) in Rat1 cells. The experiment in a line: Rat1-IGF1 assay (IGF-1 induced phospho-AKT immunoblot). It counts as cell-based, rat. The conditions noted are these: Rattus norvegicus. On the procedure: Rat1 cells are plated in 6-well culture plates and serum-starved for 24 hours. Serum-starved cells are treated either with control vehicle or with various concentrations of 17-HWT for 2 hours, stimulated by IGF-1 (100 ng/mL) for 30 minutes. Total cellular lysates are prepared using NuPAGE-LDS sample buffer (Invitrogen), sonicated and then clarified by centrifugation. Equal amounts of proteins are subject to immunoblotting analysis using NuPAGE electrophoresis system and probed with phosphor-AKT (S473), total AKT antibodies (Signaling Technology).

The next experiment relates to T2, PI3K.
T2 construct: PI3K FP IC50
The experiment in a line: Fluorescence polarization assay for PI3K. It counts as biochemical. The conditions noted are these: Table 1. The procedure:
This assay is used to determine the IC50 of compounds of the present invention as it identifies inhibitors of PI3 kinase by measuring inhibition.
The assay is run by placing 5 μL of diluted enzyme per well, then 5 μL of diluted compound (or 9.5 μL enzyme then 0.5 μL compound in DMSO) is added and mixed. Then, 10 μL substrate is added to start the reaction. The samples are incubated 30-60 minutes, then the reaction is stopped by adding 20 μL stop/detector mix.
PI3K is diluted with reaction buffer (e.g., 5 μL or 7.5 μL PI3K into 620 μL reaction buffer), and 5 μL of diluted enzyme is used per well. 5 μL reaction buffer or drug diluted in buffer (e.g., 4 μL/100 so final DMSO is 1% in reaction) is added to each. The samples are mixed by pipetting up and down. Alternatively, the enzyme can be diluted to 1215 μL. In this case 9.8 μL is added per well and 0.2 μL compound is added in DMSO.
To prepare 1 mL of substrate solution, 955 μL reaction buffer, 40 μL PIP2, and 2.5 μL ATP are mixed. 10 μL of substrate is added to each well to start the reaction.
Stop/detector mix is prepared by mixing 4 μL Red detector and 1.6 μL or 2.0 μL GST-GRP with 1 mL Stop buffer, which results in 10 nM probe and 70 nM GST-GRP). 20 μL of the stop/detector mix is added to each well to stop the reaction. The plates are read after 30-90 minutes keeping the red probe solutions dark.
For the zero time point, stop/detector mix is added to the enzyme just before adding substrate. For an extra control, stop/detector mix is added to buffer (no enzyme) and substrate or to just buffer (no substrate).
The recommended reaction has 0.06 μL per 20 μL (0.015 μg/20 μL) or 0.01125 μg/15 μL or 0.75 μg/mL.
Plates are read on machines with filters for Tamra. The units are mP with no enzyme controls reading app 190-220 mP units. Fully active enzyme reduces fluorescence polarization down to 70-100 mP after 30 minutes. An active cpd raises the mP values halfway to control or to 120-150 mP units.
In general terms: Polarisation of emitted light reports the rotation of a fluorescent probe.

On to `COC[C@H]1OC(=O)/C(=C/N(C)C2CCCCC2)C2=C(O)C(=O)C3=C([C@H](OC(C)=O)C[C@@]4(C)C3CC[C@@H]4O)[C@]21C` (stereo partly drawn) [Compound 9, (1E,4S,4aR,5R,6aS,7S)-1-{[cyclohexyl(methyl)amino]methylene}-7,11-dihydroxy-4-(methoxymethyl)-4a,6a-dimethyl-2,10-dioxo-1,2,4,4a,5,6,6a,7,8,9,9a,10-dodecahydroindeno[4,5-h]isochromen-5-yl acetate], for which the half-inhibitory concentration (IC50) in experiment [1] is 15 µg/mL; in experiment [2] (Table 1), 10 µg/mL; in experiment [3] it was 13 µg/mL; in experiment [4] (Table 1), 9.5 µg/mL; in experiment [5] (Table 1), greater than 0.1 µg/mL. At Human TOR, this molecule gave a pIC50 of 4.06.
With “(1E,4S,4aR,5R,6aS,7S)-1-[(diallylamino)methylene]-7-(formyloxy)-11-hydroxy-4-(methoxymethyl)-4a,6a-dimethyl-2,10-dioxo-1,2,4,4a,5,6,6a,7,8,9,9a,10-dodecahydroindeno[4,5-h]isochromen-5-yl acetate [Compound 17]”, in experiment [1], the “MDA435 IC50” value came out at 7 µg/mL. The “MDA468 IC50” value in experiment [2] (Table 1) stood at 0.5 µg/mL. Moreover, the “TOR IC50” value on Human TOR was found to be 1.3 µg/mL. In addition, in experiment [3], the “DU145 IC50” value was 3 µg/mL. Further, the “PI3K FP IC50” value in the experiment with PI3K amounted to 0.607 µg/mL. Further, the “LNCaP IC50” value in experiment [4] (Table 1) was 0.14 µg/mL.
On to `COC[C@H]1OC(=O)/C(=C/N2CCCCC2)C2=C(O)C(=O)C3=C([C@H](OC(C)=O)C[C@@]4(C)C3CC[C@@H]4O)[C@]21C` (stereo partly drawn) [Compound 11, (1E,4S,4aR,5R,6aS,7S)-7,11-dihydroxy-4-(methoxymethyl)-4a,6a-dimethyl-2,10-dioxo-1-(piperidin-1-ylmethylene)-1,2,4,4a,5,6,6a,7,8,9,9a,10-dodecahydroindeno[4,5-h]isochromen-5-yl acetate], for which the IC50 in experiment [1] is greater than 15 µg/mL; in experiment [2] (Table 1) it was 1.8 µg/mL; in experiment [3], 15 µg/mL; in experiment [4] (Table 1), 0.8 µg/mL; in experiment [5] (Table 1), 0.02 µg/mL. The pIC50 on Human TOR was 5.72.
As for `COC[C@H]1OC(=O)/C(=C\NCCOCCOCCNC(=O)CCCC[C@H]2SC[C@H]3NC(=O)N[C@H]32)C2=C(O)C(=O)C3=C([C@H](OC(C)=O)C[C@@]4(C)C3CC[C@@H]4O)[C@]21C` (stereo partly drawn) [Compound 51, (1Z,4S,4aR,5R,6aS,7S)-7,11-dihydroxy-4-(methoxymethyl)-4a,6a-dimethyl-2,10-dioxo-1-{12-oxo-16-[(3aR,4R,6aS)-2-oxohexahydro-1H-thieno[3,4-d]imidazol-4-yl]-5,8-dioxa-2,11-diazahexadec-1-ylidene}-1,2,4,4a,5,6,6a,7,8,9,9a,10-dodecahydroindeno[4,5-h]isochromen-5-yl acetate], the IC50 in experiment [2] (Table 2) is 30 µg/mL; in experiment [4] (Table 2), 2.8 µg/mL; in experiment [5] (Table 2), greater than 0.2 µg/mL.
Consider “(1E,4S,4aR,5R,6aS,7S)-7-(formyloxy)-11-hydroxy-4-(methoxymethyl)-4a,6a-dimethyl-2,10-dioxo-1-(pyrrolidin-1-ylmethylene)-1,2,4,4a,5,6,6a,7,8,9,9a,10-dodecahydroindeno[4,5-h]isochromen-5-yl acetate [Compound 16]”, for which, in experiment [1], the “MDA435 IC50” value came out at 5.5 µg/mL. Also, in experiment [2] (Table 1), the “MDA468 IC50” value was determined as 0.28 µg/mL. On Human TOR, the “TOR IC50” value came to 8 µg/mL. In experiment [3], the “DU145 IC50” value was found to be 1.3 µg/mL. For the same molecule, the “PI3K FP IC50” value in the experiment with PI3K was determined as 1.994 µg/mL. Besides, the “LNCaP IC50” value in experiment [4] (Table 1) is 0.08 µg/mL.
Take `CCC(=O)OC1CC2(C)C(O)CCC2C2=C1C1(C)C(=C(O)C2=O)C(=CN(C)CCN(C)C)C(=O)OC1COC` (centres unmarked) [Compound 49, Propionic acid 4-{[(2-dimethylamino-ethyl)-methyl-amino]-methylene}-6,17-dihydroxy-1-methoxymethyl-10,13-dimethyl-3,7-dioxo-1,3,4,7,10,11,12,13,14,15,16,17-dodecahydro-2-oxa-cyclopenta[a]phenanthren-11-yl ester]: the IC50 was 4.25 µg/mL (≈ 7.77 µM) in experiment [2] (Table 1) and 0.8 µg/mL (≈ 1.46 µM) in experiment [4] (Table 1). This molecule gave a pIC50 on Human TOR of 5.82. Further, in the experiment with PI3K, the “PI3K FP IC50” value came to 0.044 µg/mL.
For `CCCCSC=C1C(=O)OC(COC)C2(C)C1=C(O)C(=O)C1=C2C(OC(C)=O)CC2(C)C(O)CCC12` (centres unmarked) [Compound 52, Acetic acid 4-butylsulfanylmethylene-6,17-dihydroxy-1-methoxymethyl-10,13-dimethyl-3,7-dioxo-1,3,4,7,10,11,12,13,14,15,16,17-dodecahydro-2-oxa-cyclopenta[a]phenanthren-11-yl ester], in that order: 3.85 µg/mL (≈ 7.39 µM), 0.25 µg/mL (≈ 0.48 µM), 5.60 and 0.043 µg/mL.
